From patent publication US9649313B2, “Use of ITK inhibitors for the treatment of cancer” (The University of North Carolina at Chapel Hill, priority 2012, dated 2017) come the findings set out here.

This assay concerns the target T1, MST1 (Homo sapiens, UniProt Q13043).
T1 construct: purchased Carna Biosciences
T1 sequence (Q13043 1-487): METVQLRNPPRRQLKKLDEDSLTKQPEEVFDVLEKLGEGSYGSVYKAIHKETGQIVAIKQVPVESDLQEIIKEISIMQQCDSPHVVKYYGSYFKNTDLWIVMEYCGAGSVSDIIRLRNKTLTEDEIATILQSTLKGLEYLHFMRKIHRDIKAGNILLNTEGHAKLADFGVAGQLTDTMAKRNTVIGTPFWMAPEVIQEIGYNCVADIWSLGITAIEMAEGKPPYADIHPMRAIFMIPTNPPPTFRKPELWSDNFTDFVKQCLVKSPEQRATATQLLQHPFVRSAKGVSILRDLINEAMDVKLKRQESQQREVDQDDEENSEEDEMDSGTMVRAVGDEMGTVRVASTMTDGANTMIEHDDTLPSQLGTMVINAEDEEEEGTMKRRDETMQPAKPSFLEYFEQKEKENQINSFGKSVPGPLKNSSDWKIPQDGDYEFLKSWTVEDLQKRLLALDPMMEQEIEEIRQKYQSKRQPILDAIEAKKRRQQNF
The experiment in a line: cell-free kinase assay. It counts as biochemical. The text has this:
We investigated the potency and selectivity of BI 10N against 56 kinases using a cell-free assay (Table 8A).
The selectivity of this inhibitor was investigated by testing the potency of the inhibitor at two concentrations with 53 kinases by Carna Biosciences (MA) (Table 2).

Structures are written as SMILES.

A word on the IC50: it is the concentration needed to halve the response being measured. High values mean lower potency, low ones higher potency. In the case of `C[C@]12O[C@H](C[C@]1(O)C(=O)O)n1c3ccccc3c3c4c(c5c6ccccc6n2c5c31)CNC4=O` [K252b], the IC50 is, setting by setting: (ATP concentration at approximately the Km for ATP) 3.43 nM; (Table 2, by Carna Biosciences) 3.43 nM.
